Results taken from patent publication US4772615A, “Various N-substituted 3-piperidine carboxylic acids or N-substituted 3-pyridinecarboxylic acids and derivatives thereof” (Warner-Lambert Company, priority 1987, dated 1988).
Counter-ions that a name gives are not always drawn. Like-named read-outs stand apart in the source and are kept apart here.

Experiments:
[1] = tested on: uptake of the neurotransmitter gamma-amino-butyric acid (GABA) into slices of rat hippocampal (brain) tissue; assay: Uptake of 3H-GABA into slices (prisms) of rat hippocampus in vitro; assay type: biochemical, Male Long Evans rats; settings: 3H-GABA 0.05 μM; 10 mg tissue, 15 min with test compound at 37° C., 2 min uptake; read-out: IC50 (Calculated Median (50%) Inhibitory Concentration)
Experimental: The compounds of formula I are tested for pharmacological activity using three procedures. The first is an assay for the uptake of the neurotransmitter gamma-amino-butyric acid (GABA) into slices of rat hippocampal (brain) tissue incubated in vitro analogous to those described by Johnston, GAR, et al, in J. Neurochem. 26:1029-1032 (1976) entitled "Inhibition of the Uptake of GABA and Related Amino Acids in Rat Brain Slices by the Optical Isomers of Nipecotic Acid." Methods for this test are described in the following paragraph.
Male Long Evans rats (200-300 g) were sacrificed by decapitation, the brains quickly removed and the hippocampi were dissected out. Slices were cut (0.1×0.1 mm) on a McIlwain tissue chopper and dispersed in ice-chilled Krebs Ringer HEPES-buffered medium. Normal medium was composed of: NaCl (119 mM), KCl (4.75 mM), CaCl2 (1.25 mM), KH2 PO4 (1.20 mM), MgSO4 (1.18 mM), HEPES (22 mM), EDTA (0.03 mM), ascorbate (0.6 mM), and glucose (10 mM). The pH was adjusted to 7.2 with 3.0M Tris HCl. Following two washes in normal medium, 10 mg of tissue was incubated in a 3 ml volume of medium at 37° C. for 15 min in the presence or absence of test compound. ^3 H-GABA (80.8 Ci/mmole; 0.05 μM final concentration) was added to each flask and the uptake was allowed to proceed for a two min period. At the end of the uptake period, samples were rapidly filtered through Whatman GF/F filters and washed once with 5 ml ice-chilled 0.9% sodium chloride. The filters with tissue were placed into scintillation vials with 2 ml H2 O and allowed to sit for at least 60 min before scintillation fluid was added and samples counted. Blanks were treated in a manner similar to other samples, but were left on ice throughout the experiment. Results are expressed as percent control (no drug present) or IC50 value.
Table I. GABA uptake into prisms of rat hippocampus in vitro in the presence of different concentrations of various synthetic compounds of formula I.

[2] = tested on: threshold clonic seizures in mice caused by subcutaneous administration of pentylenetetrazol; assay: Attenuation of threshold clonic seizures in mice caused by subcutaneous pentylenetetrazol (model for absence type seizures); assay type: in vivo; settings: Mus musculus, pentylenetetrazol 85 mg/kg s.c., read-out: Calculated Median Effective Dose (ED50)
Experimental: A third pharmacological test was performed as described in R. L. Krall et al, Epilepsia, 19:409 (1978), which is incorporated herein by reference. In this procedure, drugs were tested for attenuation of threshold clonic seizures in mice caused by subcutaneous administration of pentylenetetrazol (85 mg/kg) which is a generally accepted model for absence type seizures. Results from the third test for the compound when administered either intraperitoneally (IP) or orally (PO) are shown below in Table III.

[3] = tested on: tonic hindlimb extensor seizures; assay: Threshold Maximal Electroshock (animal model for generalized seizures); assay type: in vivo, Male CF-1 mice; settings: Mus musculus, ip, 0.5 h
Experimental: Male CF-1 mice (22-30 grams) are allowed free access to food and water prior to testing. For screening, groups of five mice are given a compound intraperitoneally at doses of 30, 100, and 300 mg/kg and tested at 0.5, 2.0, and 4.0 hr after dosing. Drugs are either dissolved in 0.9% saline or suspended in 0.2% methylcellulose. Animals are shocked with corneal electrodes (see below) and observed for tonic hindlimb extensor seizures. Absence of hindlimb extension is taken as an anticonvulsant effect.
The electroshock apparatus delivers a 60 Hz sine wave with a current amplitude of 14 mA (peak-to-peak) for 0.2 seconds. The current strength of 14 mA used in this procedure produces tonic extensor seizures in approximately 95% of untreated mice, but is only slightly above threshold for tonic extension.

[4] = read-out: Number of Animals Protected from Seizures (n/5)
[5] = 30 mg/kg, intraperitoneal, 30 minutes after administration, read-out: Number of Animals Protected from Seizures (n/5)
[6] = 2 h, PO, tested 120 min following dosing

Cl.O=C(O)C1CCCN(CCOC(c2ccccc2)c2ccccc2)C1 (centres unmarked) [VII, 3-Piperidinecarboxylic acid, 1-[2-(diphenylmethoxy)ethyl]-, monohydrochloride]
IC50 [1]: 3 µM
ED50 ([2]; 0.5 h, IP, tested 30 min following dosing): 1.9 mg/kg
responders at 30 mg/kg [3, 4]: 25%
responders at 100 mg/kg [3, 4]: 50%

CCOC(=O)C1CCCN(CCSC(c2ccccc2)c2ccccc2)C1 (centres unmarked) [IV, 3-Piperidinecarboxylic acid, 1-[2-[(diphenylmethyl)thio]ethyl]-, ethyl ester]
IC50 [1]: ~60 µM

O=C(O)C1CCCN(CCOC(c2ccc(F)cc2)c2ccc(F)cc2)C1 (centres unmarked) [XIII, 3-Piperidinecarboxylic acid, 1-[2-[bis (4-fluorophenyl)methoxy]ethyl]-, monohydrochloride]
responders at 30 mg/kg [3, 4]: 40%
responders at 100 mg/kg [3, 4]: 40%

O=C(O)C1CCCN(CCOC2c3ccccc3C=Cc3ccccc32)C1 (centres unmarked) [XI, 3-Piperidinecarboxylic acid, 1-[2-[(5H-dibenzo[a,d]cyclohepten-5-yloxy)ethyl]]-]
responders at 30 mg/kg [3, 4]: 20%
responders at 100 mg/kg [3, 4]: 40%

O=C(O)C1CCCN(CCOC(c2ccccc2)c2ccc(Cl)c(Cl)c2)C1 (centres unmarked) [Example IX, 3-Piperidinecarboxylic acid, 1-[2-[(3,4-dichlorophenyl)phenylmethoxy]ethyl]-, monohydrochloride]
responders at 30 mg/kg [3, 4]: 60%
responders at 100 mg/kg [3, 4]: 80%

O=C(O)C1CCCN(CCCOC(c2ccccc2)c2ccccc2)C1 (centres unmarked) [VI, 3-Piperidinecarboxylic acid, 1-[3-diphenylmethoxy)propyl]-, monohydrochloride]
IC50 [1]: 11 µM
responders at 30 mg/kg [3, 5]: 0%
responders at 100 mg/kg ([3]; 100 mg/kg, intraperitoneal, 30 minutes after administration, read-out: Number of Animals Protected from Seizures (n/5) (converted)): 20%

O=C(O)C1=CCCN(CCOC(c2ccc(Cl)cc2)c2ccc(Cl)cc2)C1 [XIX, 3-Pyridinecarboxylic acid, 1-[2-[bis(4-chlorophenyl)methoxy]ethyl]-1,2,5,6-tetrahydro, hydrochloride]
IC50 [1]: 0.1 µM
responders at 30 mg/kg [3, 4]: 80%
responders at 100 mg/kg [3, 4]: 100%

O=C(O)C1CCCN(CCOC(c2ccccc2)c2ccc(Cl)c(C(F)(F)F)c2)C1 (centres unmarked) [X, 3-Piperidinecarboxylic acid, 1-[2-[[4-chloro-3-(trifluoromethyl)phenyl]phenylmethoxy]ethyl]monohydrochloride]
IC50 [1]: 0.86 µM
responders at 30 mg/kg [3, 4]: 20%
responders at 100 mg/kg [3, 4]: 100%

CCOC(=O)C1CCCN(CCOC(c2ccc(Cl)cc2)c2ccc(Cl)cc2)C1 (centres unmarked) [Example I, 3-Piperidinecarboxylic acid 1-[2-[bis-(4-chlorophenyl)methoxy]ethyl]-, ethyl ester]
IC50 [1]: 12 µM
responders at 30 mg/kg [3, 4]: 0%
responders at 100 mg/kg [3, 4]: 60%

O=C(O)C1CCCN(CCOC(c2ccc(Cl)cc2)c2ccc(Cl)cc2)C1 (centres unmarked) [VIII, 3-piperidinecarboxylic acid, 1-[2-[bis(4-chlorophenyl)methoxy]ethyl]monohydrochloride]
IC50 [1]: 0.29 µM
ED50 [2, 6]: 0.54 mg/kg
responders at 30 mg/kg [3, 4]: 80%
responders at 100 mg/kg [3, 4]: 80%

Cl.O=C(O)C1=CCCN(CCOC(c2ccc(C(F)(F)F)cc2)c2ccc(C(F)(F)F)cc2)C1 [XVII, 3-Pyridinecarboxylic acid, 1-[2-[bis[4-(trifluoromethyl)phenyl]methoxy]ethyl]-1,2,5,6-tetrahydro-, monohydrochloride]
IC50 [1]: 0.45 µM
ED50 [2, 6]: 0.5 mg/kg
responders at 30 mg/kg [3, 4]: 80%
responders at 100 mg/kg [3, 4]: 80%

CCOC(=O)C1CCCN(CCCOC(c2ccccc2)c2ccccc2)C1 (centres unmarked) [III, 3-Piperidinecarboxylic acid, 1-[3-(diphenylmethoxy)propyl]-, ethyl ester, monohydrochloride]
responders at 30 mg/kg [3, 5]: 0%

O=C(O)C1CCCN(CCOC(c2ccc(C(F)(F)F)cc2)c2ccc(C(F)(F)F)cc2)C1 (centres unmarked) [XVIII, 3-Piperidinecarboxylic acid, 1-[2-[bis[4-(trifluoromethyl)phenyl]methoxy]ethyl]-, hydrochloride]
IC50 [1]: 0.7 µM
responders at 30 mg/kg [3, 4]: 100%
responders at 100 mg/kg [3, 4]: 100%

CCOC(=O)C1CCCN(CCOC(c2ccccc2)c2ccccc2)C1 (centres unmarked) [II, 3-Piperidinecarboxylic acid, 1-[2-(diphenylmethoxy)ethyl]-, ethyl ester]
IC50 [1]: ~35 µM
responders at 30 mg/kg [3, 4]: 20%
responders at 100 mg/kg [3, 4]: 80%
